In ChEMBL document CHEMBL1201862, “PubChem BioAssay data set” (2004):
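The compound was tested at five concentrations on cells cultured in 96-well plates, with a 48-hour exposure period. Here, GI50 denotes the concentration required for 50% inhibition of growth.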 Activity calls are given as the source filed them. Rule as the data show it: active = GI50 up to about 1.1 µM and inactive = higher.

Tests used:
Assay in all cases: growth of human tumour cells (NCI), 48 h
COLO 205 = system: COLO 205
Malme-3M = system: Malme-3M
SK-OV-3 = system: SK-OV-3
SN12C = system: SN12C
NCI/ADR-RES = system: NCI/ADR-RES
MCF7 = system: MCF7
A498 = system: A498
SNB-75 = system: SNB-75
SK-MEL-28 = system: SK-MEL-28
HCC 2998 = system: HCC 2998
HT-29 = system: HT-29
SK-MEL-2 = system: SK-MEL-2
UO-31 = system: UO-31
MDA-MB-435 = system: MDA-MB-435
U-251 = system: U-251
MOLT-4 = system: MOLT-4
NCI-H522 = system: NCI-H522
SNB-19 = system: SNB-19
MDA-MB-231 = system: MDA-MB-231

Row | Structure (SMILES) | GI50 (COLO 205) | GI50 (Malme-3M) | GI50 (SK-OV-3) | GI50 (SN12C) | GI50 (NCI/ADR-RES) | GI50 (MCF7) | GI50 (A498) | GI50 (SNB-75) | GI50 (SK-MEL-28) | GI50 (HCC 2998) | GI50 (HT-29) | GI50 (SK-MEL-2) | GI50 (UO-31) | GI50 (MDA-MB-435) | GI50 (U-251) | GI50 (MOLT-4) | GI50 (NCI-H522) | GI50 (SNB-19) | GI50 (MDA-MB-231)
1 | O=C(c1ccccc1)c1ccc(N2C(=O)/C(=C/c3cccc(Oc4ccccc4)c3)N=C2c2ccccc2)c(N2C(=O)/C(=C/c3cccc(Oc4ccccc4)c3)N=C2c2ccccc2)c1 | 18 µM (inactive) | 19.5 µM (inactive) | 42.9 µM (inactive) | 92.3 µM (inactive) | 18.5 µM (inactive) | 24.9 µM (inactive) | 33.1 µM (inactive) | 23.9 µM (inactive) | 51.3 µM (inactive) | 20 µM (inactive) | 30.9 µM (inactive) | 17.7 µM (inactive) | 33.3 µM (inactive) | 4.72 µM (inactive) | 31.3 µM (inactive) | 11.9 µM (inactive) | 11.4 µM (inactive) | 38.5 µM (inactive) | 45.8 µM (inactive)
2 | CC1=C(C#N)C(=C(C#N)C#N)OC1(C)Cc1ccccc1 (stereo unspecified) | 21 µM (inactive) | – | > 100 µM (inactive) | 82.6 µM (inactive) | 31.9 µM (inactive) | 38.2 µM (inactive) | 87.7 µM (inactive) | > 100 µM (inactive) | 49.9 µM (inactive) | 29.5 µM (inactive) | 32.7 µM (inactive) | 36.7 µM (inactive) | 18.7 µM (inactive) | > 100 µM (inactive) | > 100 µM (inactive) | 34.3 µM (inactive) | 14.4 µM (inactive) | > 100 µM (inactive) | 47.9 µM (inactive)
3 | COC(=O)[C@@]1(NC(=O)C(CC(=O)OC(C)(C)C)NC(=O)OC(C)(C)C)C[C@H]1C (stereo partly specified) | > 100 µM (inactive) | > 100 µM (inactive) | > 100 µM (inactive) | > 100 µM (inactive) | > 100 µM (inactive) | > 100 µM (inactive) | > 100 µM (inactive) | > 100 µM (inactive) | > 100 µM (inactive) | > 100 µM (inactive) | > 100 µM (inactive) | > 100 µM (inactive) | > 100 µM (inactive) | > 100 µM (inactive) | > 100 µM (inactive) | > 100 µM (inactive) | > 100 µM (inactive) | > 100 µM (inactive) | > 100 µM (inactive)
4 | CCOC(=O)NN(C(=O)OCC)c1ccc(/N=N/c2ccc(OC)cc2)n1C | 21.7 µM (inactive) | 25.2 µM (inactive) | 30.7 µM (inactive) | 37.1 µM (inactive) | 25.9 µM (inactive) | 6 µM (inactive) | 25.3 µM (inactive) | 10.3 µM (inactive) | – | 31.3 µM (inactive) | 22.4 µM (inactive) | 10.8 µM (inactive) | 0.653 µM (active) | 22.7 µM (inactive) | 29.9 µM (inactive) | 43.7 µM (inactive) | 18 µM (inactive) | – | 19.8 µM (inactive)
5 | Cc1c2c(c(C)n1-c1ccccc1)C(=O)N(CCSC(=N)N)C2=O | > 100 µM (inactive) | > 100 µM (inactive) | > 100 µM (inactive) | > 100 µM (inactive) | 59.6 µM (inactive) | 32.1 µM (inactive) | 32.4 µM (inactive) | 15.6 µM (inactive) | > 100 µM (inactive) | > 100 µM (inactive) | > 100 µM (inactive) | 31.4 µM (inactive) | > 100 µM (inactive) | 93.3 µM (inactive) | 68.9 µM (inactive) | 14.2 µM (inactive) | 35.7 µM (inactive) | > 100 µM (inactive) | > 100 µM (inactive)
6 | CCC(CS(=O)(=O)O)[N+](=O)[O-] (stereo unspecified) | > 100 µM (inactive) | > 100 µM (inactive) | > 100 µM (inactive) | > 100 µM (inactive) | > 100 µM (inactive) | > 100 µM (inactive) | > 100 µM (inactive) | > 100 µM (inactive) | > 100 µM (inactive) | > 100 µM (inactive) | > 100 µM (inactive) | > 100 µM (inactive) | > 100 µM (inactive) | > 100 µM (inactive) | > 100 µM (inactive) | > 100 µM (inactive) | > 100 µM (inactive) | > 100 µM (inactive) | > 100 µM (inactive)
